From patent US10149855B2, “Gamma-secretase inhibition reduce APOC3 levels and plasma triglycerides” (THE TRUSTEES OF COLUMBIA UNIVERSITY IN THE CITY OF NEW YORK, priority 2014, dated 2018) come the findings set out here.

For one data set, the system named is Nicastrin. The data set is described as follows: shRNA-mediated knockdown of Nicastrin, ApoC3 secretion. To be noted: mouse hepatocytes (FIG. 25). The class given is cell-based.
Data set [1] relates to mice. To be noted: mouse, in vivo.
In data set [2] the test system is lean, diet-induced obese (DIO) and leptin-deficient obese (ob/ob) mice. The data set is described as follows: Plasma/serum triglyceride levels in mice treated with GSI or vehicle. The class given is in vivo. The procedure: Mice were administered GSI or vehicle alone to determine the effect of GSI treatment on serum triglyceride levels. […] Plasma triglyceride lowering in genetic (leptin deficient ob/ob mice) or diet-induced mouse models of obesity was even more profound, with reductions approaching 75% of vehicle-treated animals. […] L-Ncst mice had similar reductions in plasma triglyceride as GSI-treated mice, proof that the mechanism of GSI-induced reduction in plasma triglyceride is through effects on liver. L-Ncst mice had approximately 40% reduced plasma triglyceride as compared to control mice when fed normal chow, but this rises to a staggering 70% reduction when mice were challenged with high-fat diet feeding. […] As such, gamma-secretase inhibition with GSIs or liver-specific gamma-secretase blockers would be predicted to have a greater, and perhaps synergistic, effect in reducing plasma triglyceride as compared to drugs that solely target ApoC3 expression.

Another data set has as its system ApoC3. The data set is described as follows: Plasma ApoC3 levels in GSI-treated mice. In kind it is in vivo. An excerpt: Plasma triglyceride lowering in genetic (leptin deficient ob/ob mice) or diet-induced mouse models of obesity was even more profound, with reductions approaching 75% of vehicle-treated animals. […] L-Ncst mice had similar reductions in plasma triglyceride as GSI-treated mice, proof that the mechanism of GSI-induced reduction in plasma triglyceride is through effects on liver. L-Ncst mice had approximately 40% reduced plasma triglyceride as compared to control mice when fed normal chow, but this rises to a staggering 70% reduction when mice were challenged with high-fat diet feeding. […] As such, gamma-secretase inhibition with GSIs or liver-specific gamma-secretase blockers would be predicted to have a greater, and perhaps synergistic, effect in reducing plasma triglyceride as compared to drugs that solely target ApoC3 expression.

Data set [3] relates to mice. Briefly: Triglyceride secretion after lipoprotein lipase inhibition with Poloxamer 407. To be noted: plasma TG after lipoprotein lipase inhibition with Poloxamer 407 (FIG. 7). The class given is in vivo. An excerpt: DBZ-induced lower plasma TG in diet-induced obese (DIO) and leptin-deficient obese (ob/ob) mice is in the VLDL fraction. […] To differentiate these—we created a liver-specific gamma-secretase knockout mouse.

In a further data set the test system is DIO mice. Briefly: Fasted/refed plasma glucose and glucose clearance in GSI-treated mice. The class given is in vivo. To be noted: compared to vehicle (FIG. 3 Panel A).
Data set [4] concerns Lean mice, diet induced obese (DIO) mice, and leptin-deficient obese (ob/ob) mice. Briefly: Weight, glucose and insulin of mice administered GSI (DBZ) or vehicle. The class given is in vivo. The procedure:
Lean mice, diet induced obese (DIO) mice, and leptin-deficient obese (ob/ob) mice were administered either vehicle or GSI. [table]

In the case of “SEQ ID NO. 59: shRNA for knockdown of Nicastrin, sequence CTCCTTCCACAATCGGTATTA (listed as DNA, chemistry not fully specified; listed as Rattus norvegicus)”, in the data set with Nicastrin, the ApoC3 secretion entry is listed as “reduces ApoC3 secretion”.

Regarding `C[C@H](NC(=O)Cc1cc(F)cc(F)c1)C(=O)N[C@@H]1C(=O)N(C)c2ccccc2-c2ccccc21` [GSI, N-[(1S)-2-[[(7S)-6,7-dihydro-5-methyl-6-oxo-5H-dibenz[b,d]azepin-7-yl]amino]-1-methyl-2-oxoethyl]-3,5-difluoro-benzeneacetamide], the “gastrointestinal (GI) toxicity” value in the data set with mice [1] was “not associated with apparent gastrointestinal (GI) toxicity”. Also, the “triglycerides in VLDL, LDL and HDL fractions” value in data set [2] (DIO and ob/ob mice (FIG. 5)) is “lowered triglycerides in the VLDL fraction”. The plasma triglyceride entry in data set [2] (lean mice) was “reduces plasma triglyceride in a dose-dependent manner”. In addition, the plasma triglyceride reduction in data set [2] (ob/ob or diet-induced obese mice, relative to vehicle-treated animals) was roughly 75%. Also, in data set [2] (obese mice (DIO and ob/ob), compared to vehicle (FIG. 4)), the “plasma triglyceride (TG)” value is reported as “lower plasma triglyceride”. Also, the “plasma ApoC3 levels” value in the data set with ApoC3 was “markedly and proportionately reduced”. For the same compound, the TG secretion result in the data set on mice [3] is reported as “does not affect TG secretion”. The “fasted and refed glucose” value in the data set with DIO mice is recorded as “reduced both fasted as well as refed (or exogenous) glucose”. Besides, the Glucose in data set [4] (DIO mice) is 72 ± 5 mg/dL; in data set [4] (lean mice), 64 ± 2 mg/dL; in data set [4] (ob/ob mice) it was 98 ± 6 mg/dL. The Insulin in data set [4] (DIO mice) came to 1.33 ± 0.32 ng/mL; in data set [4] (lean mice), 0.49 ± 0.04 ng/mL; in data set [4] (ob/ob mice) it was 15.6 ± 3.25 ng/mL.
